Experimental findings from PubChem BioAssay (NCI) are described below.

Among the test systems are NCI/ADR-RES ovarian; LOX IMVI melanoma; HT29 colon; SNB-19 CNS; OVCAR-5 ovarian; A498 renal; HOP-62 NSCLC; MCF7 breast; MDA-MB-435.
What all share (assay): inhibition of tumour cell growth, NCI panel, 48 h

Values joined by “and” are separate entries in the source; they are usually repeats but may differ in a detail not shown here. Equal entries are not always repeated.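 Interpolation was linear, between the two tested concentrations surrounding the appropriate level; five concentrations were tested over 48 hours in 96-well plates. GI50 = concentration required for 50% inhibition of growth. TGI: concentration producing complete growth inhibition.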

With `COC(=O)C(=O)C(C(=O)C(=O)Nc1nc(=S)[nH][nH]1)c1nc2ccc([N+](=O)[O-])cc2[nH]c1=O` (stereo unspecified), the TGI in the test on NCI/ADR-RES ovarian, with LOX IMVI melanoma, in the test on HT29 colon, with SNB-19 CNS, in the test with OVCAR-5 ovarian and in the test with A498 renal was more than 100 µM throughout. Further, the TGI in the test on HOP-62 NSCLC, in the test with MCF7 breast and with MDA-MB-435 was more than 100 µM in each case.

As to `COc1ccc(OC)c(/C=C/C(=O)c2ccc3cc(OC)ccc3c2)c1`, the TGI was more than 13.8 µM in the test on NCI/ADR-RES ovarian; more than 50 µM with LOX IMVI melanoma; more than 17.2 µM in the test with SNB-19 CNS; more than 50 µM in the test on OVCAR-5 ovarian; more than 31.9 µM in the test on A498 renal; more than 50 µM with HOP-62 NSCLC. The TGI in the test with MCF7 breast is more than 50 µM; in the test on MDA-MB-435 it was 1.88 µM. Further, the GI50 in the test with LOX IMVI melanoma is 48 µM; in the test on OVCAR-5 ovarian, more than 11.6 µM; in the test on A498 renal it was 12.2 µM; in the test on HOP-62 NSCLC, 9.71 µM; with MCF7 breast, 11.4 µM; in the test on MDA-MB-435, 0.641 µM.

On to `CN(C)c1ccc(/C=N/NC(=O)c2cnc3ccccc3c2)cc1`, for which the TGI with NCI/ADR-RES ovarian, with LOX IMVI melanoma, in the test with SNB-19 CNS, in the test with OVCAR-5 ovarian, in the test with A498 renal and in the test on HOP-62 NSCLC was more than 100 µM each time. Further, the results for the TGI in the test on MCF7 breast and in the test with MDA-MB-435 were more than 100 µM and 34.5 µM, respectively.

Turning to `O=C(N/N=C/c1cccc(O)c1)c1ccc(C(F)(F)F)nc1Nc1cccc(C(F)(F)F)c1`, the GI50 in the test with NCI/ADR-RES ovarian is 2.04 µM; in the test on LOX IMVI melanoma it was 1.17 µM; in the test on HT29 colon it was 3.47 µM; with SNB-19 CNS it was 2.51 µM; with OVCAR-5 ovarian it was 1.63 µM; in the test on A498 renal it was 1.59 µM. The figures for the GI50 in the test on HOP-62 NSCLC, in the test on MCF7 breast and with MDA-MB-435 were 2.35 µM, 1.37 µM and 1.65 µM, respectively. Moreover, the TGI in the test with NCI/ADR-RES ovarian worked out at 5.93 µM; in the test with LOX IMVI melanoma it was 3.17 µM; in the test on HT29 colon, 11.2 µM; in the test on SNB-19 CNS it was 12 µM; with OVCAR-5 ovarian, 5.67 µM; in the test with A498 renal it was 5.65 µM. Also, the TGI in the test on HOP-62 NSCLC is 6.95 µM; in the test on MCF7 breast it was 4.08 µM; with MDA-MB-435 it was 4.23 µM.

Consider `COn1cc(C(=O)N=C(SC)SC)c2ccccc21`, for which the GI50 was 18.2 µM in the test on NCI/ADR-RES ovarian; 17.6 µM in the test on LOX IMVI melanoma; 42.1 µM in the test with HT29 colon; 40.2 µM in the test with SNB-19 CNS; 26.2 µM with OVCAR-5 ovarian; 17.6 µM in the test with HOP-62 NSCLC. In addition, the GI50 in the test with MCF7 breast was more than 100 µM; with MDA-MB-435, 14 µM. Also, the TGI is 42.5 µM with NCI/ADR-RES ovarian; 50.6 µM in the test on LOX IMVI melanoma; more than 100 µM with HT29 colon; more than 100 µM in the test on SNB-19 CNS; 73.7 µM with OVCAR-5 ovarian; 51.4 µM in the test with HOP-62 NSCLC. Besides, the TGI in the test on MCF7 breast was more than 100 µM; with MDA-MB-435, 39.7 µM.

As for `NC(N)=NC(N)=NCc1ccco1`, the GI50 with NCI/ADR-RES ovarian is more than 1250 µM; in the test with LOX IMVI melanoma, 581 µM; in the test with HT29 colon, more than 1250 µM; in the test on SNB-19 CNS, more than 1250 µM; in the test with OVCAR-5 ovarian, more than 1250 µM; in the test on A498 renal, 190 µM and > 1250 µM. The GI50 in the test with HOP-62 NSCLC is 780 µM; with MCF7 breast it was 600 µM; in the test on MDA-MB-435, more than 1250 µM. For the same compound, the TGI in the test on NCI/ADR-RES ovarian, in the test on LOX IMVI melanoma, in the test on HT29 colon, in the test with SNB-19 CNS, with OVCAR-5 ovarian and with A498 renal was more than 1250 µM in each case. Moreover, the TGI in the test with HOP-62 NSCLC, with MCF7 breast and in the test with MDA-MB-435 was more than 1250 µM each time.

For the compound `COc1ccc(-c2cc(=O)c3cccnc3[nH]2)cc1`, the TGI with NCI/ADR-RES ovarian is more than 100 µM; in the test with LOX IMVI melanoma it was more than 100 µM; in the test with HT29 colon, 38.4 µM; with SNB-19 CNS, more than 100 µM; in the test with OVCAR-5 ovarian, more than 100 µM; in the test with A498 renal it was more than 100 µM. Further, the TGI in the test with HOP-62 NSCLC was more than 100 µM; with MCF7 breast it was more than 100 µM; with MDA-MB-435 it was 91.6 µM. In the test with MDA-MB-435, the GI50 is 20 µM.

On to `COC(=O)C1=C(O)C(C(=O)OC)[C@@]2(O)[C@@H](C(=O)OC)C(c3ccccc3Cl)C[C@@H]1[C@@H]2C(=O)OC` (stereo partly specified), for which the GI50 in the test with NCI/ADR-RES ovarian was 3.16 µM; in the test with LOX IMVI melanoma it was 4.43 µM; in the test with HT29 colon, 6.28 µM; in the test on SNB-19 CNS, 16.2 µM; in the test on OVCAR-5 ovarian, 15 µM; with A498 renal it was 14.2 µM. Moreover, the GI50 with HOP-62 NSCLC was 10.4 µM; in the test with MCF7 breast it was 5.24 µM; in the test with MDA-MB-435, 3.09 µM. Also, the TGI worked out at 15.9 µM in the test with NCI/ADR-RES ovarian; 17 µM in the test on LOX IMVI melanoma; 32.6 µM with HT29 colon; 39.5 µM in the test on SNB-19 CNS; 32.4 µM in the test with OVCAR-5 ovarian; 32.4 µM with A498 renal. The results for the TGI with HOP-62 NSCLC, in the test with MCF7 breast and in the test on MDA-MB-435 were 23.8 µM, more than 100 µM and 8.82 µM, respectively.
